US20100119620A1, “SUPPRESSING MICROBIAL GROWTH IN PULP AND PAPER” (priority 2006, published 2010)

How the values were obtained:
[1] = Halogen residuals (total and free) measured using DPD reagent after blending NaOCl with urea/NaOH; format: physicochemical
Procedure: We blended 5.0 mL NaOCl (3% as Cl2 in water) with 5.0 mL of an aqueous solution of urea and sodium hydroxide (0.5M urea in 5% NaOH). To achieve a 2:1 molar ratio of chlorine to urea we blended 5.0 mL NaOCl (3% as Cl2 in water) with 5.0 mL of an aqueous solution of urea and sodium hydroxide (0.25M urea in 5% NaOH). Halogen residuals were measured using DPD reagent, and were recorded 3 minutes after mixing with the reagent.
Because of the higher yield, less halogen is required to achieve the desired anti-microbial effect under these test conditions. […] The advantages of increased yield and improved anti-microbial activity are shown in Example 2.

[2] = test system: Sphaerotilus natans (ATCC 1529); assay: Mean Biocidal Concentration for 100% kill of filamentous test isolate in buffered water (pH 7.2); format: cell-based
Procedure: Two biocide solutions were evaluated and included NaOCl and NaOCl mixed with urea at a 1:1 molar ratio. The unstabilized NaOCl solution was 3% as Cl2 in water. To prepare the stabilized chlorine solution we blended 5.0 mL NaOCl (3% as Cl2 in water) with 5.0 mL of an aqueous solution of urea and sodium hydroxide (0.5M urea in 5% NaOH). In the case of the stabilized chlorine the NaOCl and urea were mixed prior to introduction to buffered water (pH 7.2) inoculated with approximately 1×10^5 bacterial filaments/mL of the filamentous test isolate. The filamentous test isolate used in this evaluation was Sphaerotilus natans (ATCC 1529). The Mean Biocidal Concentration was identified as the test chlorine concentration in ppm of total chlorine (Cl2) required for 100% kill of the filamentous test isolate.

[3] = test system: bacteria native to the process water sample; assay: Bacterial density in paper process water (coated groundwood mill, pH 7.9) dosed with halogen, with re-challenge; format: cell-based
Procedure: The unstabilized bleach solution was 3% as Cl2 in water. To prepare the stabilized chlorine solution we blended 5.0 mL NaOCl (3% as Cl2 in water) with 5.0 mL of an aqueous solution of urea and sodium hydroxide (0.5M urea in 5% NaOH). We then blended 5.0 mL NaOCl (3% as Cl2 in water) with 5.0 mL of an aqueous solution of urea and sodium hydroxide (0.25M urea in 5% NaOH). This yielded a 2:1 molar ratio of chlorine to urea.
Paper process water was collected from a mill in the Northeastern US producing coated groundwood printing and writing grades (pH 7.9). Samples were dosed with halogen and plated after one and four hours. Following the four-hour sampling, process water was challenged with 1% (volume/volume) of untreated process water and samples were plated again after 24 hours.

[4] = pH after mixing 9.8, recorded 3 minutes after mixing with DPD reagent

[Na+].[O-]Cl [NaOC1, sodium hypochlorite]
Free Halogen (% Yield) [1, 4]: 100 % Yield | Total Halogen (% Yield) [1, 4]: 100 % Yield | Free Halogen (% Yield) ([1]; pH after mixing 13.0): 100 % Yield | Total Halogen (% Yield) ([1]; pH after mixing 13.0): 100 % Yield | Free Halogen (% Yield) ([1]; pH after mixing 13.5): 100 % Yield | Total Halogen (% Yield) ([1]; pH after mixing 13.5): 100 % Yield | Mean Biocidal Concentration S. natans ([2]; contact time 0.5 hours): 5 ppm Total C12 | Mean Biocidal Concentration S. natans ([2]; contact time 1 hour): 5 ppm Total C12 | Mean Biocidal Concentration S. natans ([2]; contact time 3.5 hours): 5 ppm Total C12 | Mean Biocidal Concentration S. natans ([2]; contact time 9 hours): 5 ppm Total C12 | Bacterial Density ([3]; 2.5 ppm Total C12, contact time 1 hour): 2 log 10 CFU/mL | Bacterial Density ([3]; 2.5 ppm Total C12, contact time 4 hours): 3.5 log 10 CFU/mL | Bacterial Density ([3]; 2.5 ppm Total C12, contact time 24 hours, after challenge with 1% (v/v) untreated process water at 4 hours): 7.4 log 10 CFU/mL | Bacterial Density ([3]; 10 ppm Total C12, contact time 1 hour): 2 log 10 CFU/mL | Bacterial Density ([3]; 10 ppm Total C12, contact time 4 hours): 2 log 10 CFU/mL | Bacterial Density ([3]; 10 ppm Total C12, contact time 24 hours, after challenge with 1% (v/v) untreated process water at 4 hours): 7.3 log 10 CFU/mL
